According to ChEMBL document CHEMBL3112523, “Synthesis and biological evaluation of benzo[4,5]imidazo[1,2-c]pyrimidine and benzo[4,5]imidazo[1,2-a]pyrazine derivatives as anaplastic lymphoma kinase inhibitors” (Bioorg Med Chem, 2014):

Legend:
[1] = biological target: ALK tyrosine kinase receptor (Homo sapiens, UniProt Q9UM73)
[2] = biological target: ALK tyrosine kinase receptor (Homo sapiens, UniProt Q9UM73, L1196M)
BaF3 = experiment: cells; conditions: Mus musculus
Description: Cytotoxicity against mouse BAF3 cells assessed as growth inhibition after 72 hrs by [3H]-thymidine incorporation assay

Row | IC50 [1] | Structure (SMILES) | IC50 [2] | IC50 (BaF3)
1 | > 100 µM | Clc1cc2nc3ccccc3n2cn1 | – | –
2 | 51 µM | COc1cccc(Nc2cc3nc4ccccc4n3cn2)c1 | – | –
3 | > 50 µM | Clc1cc2nc3ccc(Br)cc3n2cn1 | – | –
4 | 10 µM | COc1ccc(-c2cc3nc4ccc(Br)cc4n3cn2)cc1 | – | > 25 µM
5 | > 100 µM | Clc1cncc2nc3ccccc3n12 | – | –
6 | > 50 µM | Clc1cncc2nc3ccc(Br)cc3n12 | – | 2.4 µM
7 | 18 µM | COc1ccc(-c2cncc3nc4ccc(-c5ccc(NC(C)=O)cc5)cc4n23)cc1 | – | –
8 | 14 µM | COc1ccc(-c2cncc3nc4ccc(-c5ccc(N6CCN(C)CC6)cc5)cc4n23)cc1 | – | –

Row | Structure (SMILES) | IC50 [1] | IC50 [2] | IC50 (BaF3)
9 | c1ccc(Nc2cc3nc4ccccc4n3cn2)cc1 | 52 µM | 10 µM | –
10 | O=[N+]([O-])c1cccc(Nc2cc3nc4ccccc4n3cn2)c1 | 10 µM | 14 µM | –
11 | Brc1ccc2nc3cc(Nc4ccccc4)ncn3c2c1 | 69 µM | 49 µM | 5.2 µM
12 | CN1CCN(c2ccc(-c3ccc4nc5cncc(-c6ccc(N7CCN(C)CC7)cc6)n5c4c3)cc2)CC1 | > 100 µM | 29 µM | 0.87 µM
13 | COc1ccc(-c2cncc3nc4ccc(/C=C/c5ccccc5)cc4n23)cc1 | 3.5 µM | 4.5 µM | –
14 | COc1ccc(-c2ccc3nc4cncc(/C=C/c5ccccc5)n4c3c2)cc1 | 0.65 µM | 1.5 µM | > 12.5 µM
